Experimental data reported in patent US20050238628A1, “Methods for treating cancer” (priority 2004, published 2005).
“Also recorded” adds a separate entry of the source.

Key:
[1] = tested on: Ba/F3 cells expressing the GyrB/Flt3 construct; assay: Growth of Ba/F3 cells expressing GyrB/Flt3 in the presence of the CID coumermycin; format: cell-based; settings: FIG. 1
From the text: (§1) An MSCV-based vector was constructed that encodes a fusion protein containing a myristylation domain linked to DNA gyrase B, which in turn is linked to the intracellular portion of murine flt-3, which in turn is linked to an HA epitope tag. […] Ba/F3 cells expressing the GyrB/Flt3 construct can be distinguished from Ba/F3 cells expressing EpoR/Abl using intracellular flow cytometry with an antibody directed against the HA tag.

[2] = tested on: Ba/F3 cells expressing EpoR/Abl mixed with Ba/F3 cells expressing GyrB/Flt3; assay: Mixed culture of EpoR/Abl and GyrB/Flt3 Ba/F3 cells, HA tag flow cytometry; format: cell-based; settings: coumermycin 1 nM, absence of IL-3, 4 days, flow cytometry for HA tag; FIG. 2
Protocol: A cDNA containing the EpoRIAbl construct was used to transduce Ba/F3 cells by retroviral gene transfer. After two days, IL-3 containing medium was washed away, and cells were cultured in the presence of erythropoietin (3 units/ml), without IL-3, to generate a polyclonal pool of erythropoietin dependent cells.
as §1
After 4 days, the frequency of cells expressing the HA tag was determined by flow cytometry.

Ba/F3EpoRAbl cells = settings: nude mice, tail vein injection of cells followed by injections of erythropoietin; cited from earlier work
Reh cells (EpoR) = assay: STAT5 phosphorylation in Reh cells upon addition of erythropoietin; format: cell-based; settings: human TEL/AML1+ ALL line
From the text: A number of nonerythroid cell lines have been examined for EpoR expression.

## coumermycin
[1]
  growth of Ba/F3 cells in the presence of the CID: capable of growth; also recorded: capable of group
[2]
  erythropoietin responsive (HA-negative) cells in mixed culture: sharp reduction in erythropoietin responsive (HA-negative) cells

## erythropoietin
Ba/F3EpoRAbl cells
  death of mice injected with Ba/F3EpoRAbl cells: induce death with a timecourse that is dependent on the concentration of exogenously administered Epo
Reh cells (EpoR)
  STAT5 phosphorylation: exhibit STAT5 phosphorylation
